Publication PMC12261233, “Photoactivatable Cyclometalated Ir(III) Compound Penetrates the Blood-Brain Barrier in 3D Spheroidal and Advanced 3D Organoid Models of Inherently Resistant and Aggressive Brain Tumors” (ACS Pharmacology & Translational Science, 2025)

Legend:
U87MG cells = assay: Iridium uptake in Transwell binary coculture BBB model (ICP-MS), U87MG; format: cell-based, human; conditions: 24 h
Experimental: The cellular uptake of anticancer compounds after penetrating the BBB is crucial for their efficacy in treating brain tumors. Understanding the extent of cellular uptake provides insights into the distribution and localization of these compounds within brain tumor cells, making such studies essential for assessing their potential efficacy. We utilized the static Transwell binary coculture BBB model, comprising an […] hCMEC/D3 cell line (representing the BBB) and a glioblastoma U87MG cell line. In this model, hCMEC/D3 cells were seeded on the apical side of the Transwell, while U87MG cells were seeded on the basolateral side. […] After a 24-h incubation, cells were harvested, counted, and the iridium uptake by both cell lines was analyzed using ICP-MS. […]
To confirm that the tested compounds can effectively target and accumulate in the desired U87MG glioblastoma cells, a coculture model was employed to monitor cellular uptake in both hCMEC/D3 cells and U87MG cells. […] The total iridium uptake by U87MG or hCMEC/D3 cells was analyzed 24 h after treatment. In brief, the apical and basolateral parts were separated, and each cellular model was harvested by trypsinization, pelleted by centrifugation, and counted. […] The final iridium content was determined through ICP-MS analysis. The experiments were replicated in triplicate, and the data are expressed as nanograms of iridium per one million cells.

U87MG spheroids = assay: Morphology and diameter of spheroids after treatment and irradiation (phase contrast); format: cell-based, human; conditions: 90 min treatment, 30 min blue light, 70 h drug-free incubation
Experimental: We further investigated the effects of treatment and irradiation on tumor spheroids by analyzing the morphology and diameter of spheroids from the U87MG cell line. Morphogenic parameters were assessed using phase contrast microscopy at 24-h intervals during the preformation phase and post-treatment, culminating at 144 h. Initial mean diameters of the spheroids were 280 ± 11 μm, increasing to 550 μm after 70 h of drug-free incubation. U87MG spheroids proliferated rapidly. Rapidly growing tumor cells are generally more sensitive to treatment, whereas quiescent tumor cells are moderately sensitive to metal-based compounds.
The spheroid models underwent treatment with varying concentrations of compounds, focusing on equitoxic concentrations during blue light exposure. The analysis included both irradiated and nonirradiated samples to assess nonspecific toxicity under dark conditions. […]
Figure S30. […] Phase contrast microphotographs were obtained for spheroids generated from U87MG cells (panel A), and the respective mean diameters were analyzed and shown in panel B for U87MG spheroids. […] Mean diameters for dark-incubated samples were analyzed at the same concentrations as those for irradiated samples to assess the impact of irradiation. […]

hCMEC/D3 cells = system: hCMEC/D3 cells; parameters: method as in number not printed (footnote c: Data taken from the ref); conditions: comparison value; ref number not printed (footnote c: Data taken from the ref); cited from earlier work

Structure (SMILES)	iridium uptake by U87MG cells (U87MG cells; 10 μM applied apically, binary coculture BBB model, basolateral cells) [ng Ir/10^6 cells]	accumulation in U87MG cells compared to hCMEC/D3 cells (U87MG cells; 10 μM, coculture)	effect on spheroid diameter / growth (U87MG spheroids)	P app (hCMEC/D3 cells)
CCCCn1c2[n+](c3cc(C(=O)OC)ccc31)[Ir-3]13([Cl])([c]4ccccc4-2)[n+]2ccccc2-c2cc(-c4ccc(C)cc4)cc([n+]21)-c1cccc[n+]13.F[P-](F)(F)(F)(F)F [Ir4]	108 ± 14	more than 2 fold	spheroid diameters decreased below their initial size	
Cn1nnc2c(C(N)=O)ncn2c1=O [Temozolomide, reference compound]				0.36 × 10^–4 cm·s^–1
